Measurements: patent publication US9695155B2, “Herbicidal substituted pyrimidinyloxy benzene compounds” (E. I. DU PONT DE NEMOURS AND COMPANY, priority 2013, dated 2017)

What was measured:
Test in all cases: Test E preemergence
lambsquarters = assay type: in vivo, Chenopodium album; settings: for Lambsquarters plant response rating: scale 0 to 100 (0 no effect, 100 complete control); for Plant response rating, Lambsquarters: scale 0 to 100, 0 no effect, 100 complete control
Description: (§1) Seeds of plant species selected from corn (Zea mays), soybean (Glycine max), velvetleaf (Abutilon theophrasti), lambsquarters (Chenopodium album), wild poinsettia (Euphorbia heterophylla), palmer pigweed (Amaranthus palmeri), waterhemp (common waterhemp, Amaranthus rudis), surinam grass (Brachiaria decumbens), large (Lg) crabgrass (Digitaria sanguinalis), Brazilian crabgrass (Digitaria horizontalis), fall panicum (Panicum dichotomiflorum), giant foxtail (Setaria faberii), green foxtail (Setaria viridis), goosegrass (Eleusine indica), johnsongrass (Sorghum halepense), ragweed (common ragweed, Ambrosia elatior), barnyardgrass (Echinochloa crus-galli), sandbur (southern sandbur, Cenchrus echinatus), arrowleaf sida (Sida rhombifolia), Italian ryegrass (Lolium multiflorum), dayflower (Virginia (VA) dayflower, Commelina virginica), field bindweed (Convolvulus arvensis), morningglory (Ipomoea coccinea), nightshade (eastern black nightshade, Solanum ptycanthum), kochia (Kochia scoparia), yellow nutsedge (Cyperus esculentus), cocklebur (common cocklebur, Xanthium strumarium), smartweed (ladysthumb smartweed, and hairy beggarticks (Bidens pilosa), were planted into a silt loam soil and treated preemergence with test chemicals formulated in a non-phytotoxic solvent mixture which included a surfactant.
(§2) At the same time, plants from these crop and weed species and also horseweed (Canada horseweed, Conyza canadensis), waterhemp_RES1, (ALS & Triazine resistant common waterhemp, Amaranthus rudis), and waterhemp_RES2, (ALS & HPPD resistant common waterhemp, Amaranthus rudis) were planted in pots containing Redi-Earth® planting medium (Scotts Company, 14111 Scottslawn Road, Marysville, Ohio 43041) comprising spaghnum peat moss, vermiculite, wetting agent and starter nutrients were treated with postemergence applications of test chemicals formulated in the same manner. Plants ranged in height from 2 to 18 cm for postemergence treatments (1- to 4-leaf stage). Treated plants and controls were maintained in a greenhouse for 14 to 21 days, after which time all species were compared to controls and visually evaluated. Plant response ratings, summarized in Table E, are based on a scale of 0 to 100 where 0 is no effect and 100 is complete control. A dash (-) response means no test result.

wild poinsettia = assay type: in vivo, Euphorbia heterophylla; settings: for Poinsettia, Wild plant response rating: scale 0 to 100 (0 no effect, 100 complete control); for Plant response rating, Poinsettia, Wild: scale 0 to 100, 0 no effect, 100 complete control
Description: as §1, §2

surinam grass = assay type: in vivo, Brachiaria decumbens; settings: for Surinam Grass plant response rating: scale 0 to 100 (0 no effect, 100 complete control); for Plant response rating, Surinam Grass: scale 0 to 100, 0 no effect, 100 complete control
Outline: (§3)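 Test chemicals formulated in a non-phytotoxic solvent mixture containing a surfactant were applied preemergence to seeds in silt loam soil or postemergence to plants at the 1- to 4-leaf stage in potting mix. After 14 to 21 days in a greenhouse, injury was visually rated against controls on a 0-100 scale (0 = no effect, 100 = complete control).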

large (Lg) crabgrass = assay type: in vivo, Digitaria sanguinalis; settings: for Crabgrass, Large plant response rating: scale 0 to 100 (0 no effect, 100 complete control); for Plant response rating, Crabgrass, Large: scale 0 to 100, 0 no effect, 100 complete control
Description: as §1, §2

fall panicum = assay type: in vivo, Panicum dichotomiflorum; settings: for Panicum, Fall plant response rating: scale 0 to 100 (0 no effect, 100 complete control); for Plant response rating, Panicum, Fall: scale 0 to 100, 0 no effect, 100 complete control
Description: as §1, §2

goosegrass = assay type: in vivo, Eleusine indica; settings: for Goosegrass plant response rating: scale 0 to 100 (0 no effect, 100 complete control); for Plant response rating, Goosegrass: scale 0 to 100, 0 no effect, 100 complete control
Outline: as §3

johnsongrass = assay type: in vivo, Sorghum halepense; settings: for Johnsongrass plant response rating: scale 0 to 100 (0 no effect, 100 complete control); for Plant response rating, Johnsongrass: scale 0 to 100, 0 no effect, 100 complete control
Outline: as §3

ragweed = assay type: in vivo, Ambrosia elatior; settings: for Ragweed plant response rating: scale 0 to 100 (0 no effect, 100 complete control); for Plant response rating, Ragweed: scale 0 to 100, 0 no effect, 100 complete control
Description: as §1, §2

barnyardgrass = assay type: in vivo, Echinochloa crus-galli; settings: for Barnyardgrass plant response rating: scale 0 to 100 (0 no effect, 100 complete control); for Plant response rating, Barnyardgrass: scale 0 to 100, 0 no effect, 100 complete control
Outline: as §3

dayflower = assay type: in vivo, Commelina virginica; settings: for Dayflower, VA plant response rating: scale 0 to 100 (0 no effect, 100 complete control); for Plant response rating, Dayflower, VA: scale 0 to 100, 0 no effect, 100 complete control
Description: as §1, §2

hairy beggarticks = assay type: in vivo, Bidens pilosa; settings: for Beggarticks plant response rating: scale 0 to 100 (0 no effect, 100 complete control); for Plant response rating, Beggarticks: scale 0 to 100, 0 no effect, 100 complete control
Outline: as §3

N#Cc1cccc(Oc2ncc(Cl)cn2)c1-n1cc(C(F)(F)F)cn1 [Compound 58, 3-[(5-chloro-2-pyrimidinyl)oxy]-2-[4-(trifluoromethyl)-1H-pyrazol-1-yl]benzonitrile]
35: Johnsongrass plant response rating (johnsongrass; 31 g ai/ha)
98: Lambsquarters plant response rating (lambsquarters; 16 g ai/ha) | Lambsquarters plant response rating (lambsquarters; 31 g ai/ha) | Lambsquarters plant response rating (lambsquarters; 62 g ai/ha) | Plant response rating, Lambsquarters (lambsquarters; 125 g ai/ha) | Plant response rating, Lambsquarters (lambsquarters; 250 g ai/ha) | Panicum, Fall plant response rating (fall panicum; 31 g ai/ha) | Plant response rating, Barnyardgrass (barnyardgrass; preemergence, 250 g ai/ha) | Plant response rating, Dayflower, VA (dayflower; 125 g ai/ha) | Plant response rating, Dayflower, VA (dayflower; 250 g ai/ha)
40: Barnyardgrass plant response rating (barnyardgrass; 31 g ai/ha, preemergence)
25: Surinam Grass plant response rating (surinam grass; 62 g ai/ha)
20: Barnyardgrass plant response rating (barnyardgrass; 16 g ai/ha, preemergence) | Dayflower, VA plant response rating (dayflower; 31 g ai/ha)
90: Poinsettia, Wild plant response rating (wild poinsettia; 62 g ai/ha) | Plant response rating, Surinam Grass (surinam grass; 250 g ai/ha) | Plant response rating, Barnyardgrass (barnyardgrass; Preemergence, 62 g ai/ha)
15: Poinsettia, Wild plant response rating (wild poinsettia; 31 g ai/ha) | Plant response rating, Beggarticks (hairy beggarticks; preemergence, 125 g ai/ha)
75: Crabgrass, Large plant response rating (large (Lg) crabgrass; 16 g ai/ha)
50: Plant response rating, Ragweed (ragweed; 125 g ai/ha)
95: Panicum, Fall plant response rating (fall panicum; 16 g ai/ha) | Goosegrass plant response rating (goosegrass; 62 g ai/ha) | Johnsongrass plant response rating (johnsongrass; 62 g ai/ha) | Plant response rating, Johnsongrass (johnsongrass; 125 g ai/ha) | Plant response rating, Barnyardgrass (barnyardgrass; preemergence, 125 g ai/ha)
10: Goosegrass plant response rating (goosegrass; 16 g ai/ha)
70: Goosegrass plant response rating (goosegrass; 31 g ai/ha) | Dayflower, VA plant response rating (dayflower; 62 g ai/ha)
85: Plant response rating, Ragweed (ragweed; 250 g ai/ha)
0: Surinam Grass plant response rating (surinam grass; 16 g ai/ha) | Surinam Grass plant response rating (surinam grass; 31 g ai/ha) | Ragweed plant response rating (ragweed; 16 g ai/ha) | Ragweed plant response rating (ragweed; 31 g ai/ha) | Beggarticks plant response rating (hairy beggarticks; 16 g ai/ha, preemergence) | Beggarticks plant response rating (hairy beggarticks; 31 g ai/ha, preemergence) | Plant response rating, Beggarticks (hairy beggarticks; Preemergence, 62 g ai/ha)
65: Plant response rating, Surinam Grass (surinam grass; 125 g ai/ha)
100: Plant response rating, Poinsettia, Wild (wild poinsettia; 125 g ai/ha) | Plant response rating, Poinsettia, Wild (wild poinsettia; 250 g ai/ha) | Crabgrass, Large plant response rating (large (Lg) crabgrass; 31 g ai/ha) | Crabgrass, Large plant response rating (large (Lg) crabgrass; 62 g ai/ha) | Plant response rating, Crabgrass, Large (large (Lg) crabgrass; 125 g ai/ha) | Plant response rating, Crabgrass, Large (large (Lg) crabgrass; 250 g ai/ha) | Panicum, Fall plant response rating (fall panicum; 62 g ai/ha) | Plant response rating, Panicum, Fall (fall panicum; 125 g ai/ha) | Plant response rating, Panicum, Fall (fall panicum; 250 g ai/ha) | Plant response rating, Goosegrass (goosegrass; 125 g ai/ha) | Plant response rating, Goosegrass (goosegrass; 250 g ai/ha) | Plant response rating, Johnsongrass (johnsongrass; 250 g ai/ha) | Plant response rating, Beggarticks (hairy beggarticks; preemergence, 250 g ai/ha)
5: Poinsettia, Wild plant response rating (wild poinsettia; 16 g ai/ha) | Ragweed plant response rating (ragweed; 62 g ai/ha) | Dayflower, VA plant response rating (dayflower; 16 g ai/ha)

N#Cc1cccc(Oc2ncc(F)cn2)c1-n1cc(Cl)cn1 [Compound 73]
5: Surinam Grass plant response rating (surinam grass; 62 g ai/ha) | Ragweed plant response rating (ragweed; 31 g ai/ha) | Beggarticks plant response rating (hairy beggarticks; 16 g ai/ha, preemergence) | Beggarticks plant response rating (hairy beggarticks; 31 g ai/ha, preemergence)
30: Poinsettia, Wild plant response rating (wild poinsettia; 31 g ai/ha) | Crabgrass, Large plant response rating (large (Lg) crabgrass; 31 g ai/ha) | Ragweed plant response rating (ragweed; 62 g ai/ha)
50: Plant response rating, Beggarticks (hairy beggarticks; preemergence, 125 g ai/ha)
75: Plant response rating, Barnyardgrass (barnyardgrass; preemergence, 250 g ai/ha) | Plant response rating, Beggarticks (hairy beggarticks; preemergence, 250 g ai/ha)
20: Plant response rating, Surinam Grass (surinam grass; 125 g ai/ha) | Goosegrass plant response rating (goosegrass; 31 g ai/ha) | Johnsongrass plant response rating (johnsongrass; 31 g ai/ha) | Johnsongrass plant response rating (johnsongrass; 62 g ai/ha) | Plant response rating, Barnyardgrass (barnyardgrass; preemergence, 125 g ai/ha) | Plant response rating, Beggarticks (hairy beggarticks; Preemergence, 62 g ai/ha)
85: Plant response rating, Poinsettia, Wild (wild poinsettia; 250 g ai/ha) | Plant response rating, Johnsongrass (johnsongrass; 250 g ai/ha)
95: Plant response rating, Dayflower, VA (dayflower; 250 g ai/ha)
65: Lambsquarters plant response rating (lambsquarters; 31 g ai/ha) | Plant response rating, Poinsettia, Wild (wild poinsettia; 125 g ai/ha) | Plant response rating, Dayflower, VA (dayflower; 125 g ai/ha)
0: Poinsettia, Wild plant response rating (wild poinsettia; 16 g ai/ha) | Surinam Grass plant response rating (surinam grass; 16 g ai/ha) | Surinam Grass plant response rating (surinam grass; 31 g ai/ha) | Crabgrass, Large plant response rating (large (Lg) crabgrass; 16 g ai/ha) | Panicum, Fall plant response rating (fall panicum; 16 g ai/ha) | Goosegrass plant response rating (goosegrass; 16 g ai/ha) | Johnsongrass plant response rating (johnsongrass; 16 g ai/ha) | Ragweed plant response rating (ragweed; 16 g ai/ha) | Barnyardgrass plant response rating (barnyardgrass; 16 g ai/ha, preemergence) | Barnyardgrass plant response rating (barnyardgrass; 31 g ai/ha, preemergence) | Plant response rating, Barnyardgrass (barnyardgrass; Preemergence, 62 g ai/ha) | Dayflower, VA plant response rating (dayflower; 16 g ai/ha) | Dayflower, VA plant response rating (dayflower; 31 g ai/ha)
60: Plant response rating, Ragweed (ragweed; 125 g ai/ha)
35: Poinsettia, Wild plant response rating (wild poinsettia; 62 g ai/ha) | Plant response rating, Surinam Grass (surinam grass; 250 g ai/ha) | Plant response rating, Johnsongrass (johnsongrass; 125 g ai/ha)
70: Goosegrass plant response rating (goosegrass; 62 g ai/ha)
100: Plant response rating, Lambsquarters (lambsquarters; 125 g ai/ha) | Plant response rating, Lambsquarters (lambsquarters; 250 g ai/ha) | Crabgrass, Large plant response rating (large (Lg) crabgrass; 62 g ai/ha) | Plant response rating, Crabgrass, Large (large (Lg) crabgrass; 125 g ai/ha) | Plant response rating, Crabgrass, Large (large (Lg) crabgrass; 250 g ai/ha) | Plant response rating, Panicum, Fall (fall panicum; 250 g ai/ha) | Plant response rating, Goosegrass (goosegrass; 250 g ai/ha)
40: Panicum, Fall plant response rating (fall panicum; 31 g ai/ha)
10: Lambsquarters plant response rating (lambsquarters; 16 g ai/ha)
98: Lambsquarters plant response rating (lambsquarters; 62 g ai/ha) | Panicum, Fall plant response rating (fall panicum; 62 g ai/ha) | Plant response rating, Panicum, Fall (fall panicum; 125 g ai/ha) | Plant response rating, Goosegrass (goosegrass; 125 g ai/ha)
80: Plant response rating, Ragweed (ragweed; 250 g ai/ha)
25: Dayflower, VA plant response rating (dayflower; 62 g ai/ha)
